# Assay results from patent publication US20160176880A1, “SUBSTITUTED IMIDAZO[1,2-A]PYRAZINECARBOXAMIDES AND USE THEREOF” (BAYER PHARMA AKTIENGESELLSCHAFT, priority 2013, published 2016).
# Target: T1, recombinant guanylate cyclase reporter cell line (Rattus norvegicus, UniProt P19686+P20595)
# T1 construct: expressed in transfected cells
# T1 sequence (P19686 1-690): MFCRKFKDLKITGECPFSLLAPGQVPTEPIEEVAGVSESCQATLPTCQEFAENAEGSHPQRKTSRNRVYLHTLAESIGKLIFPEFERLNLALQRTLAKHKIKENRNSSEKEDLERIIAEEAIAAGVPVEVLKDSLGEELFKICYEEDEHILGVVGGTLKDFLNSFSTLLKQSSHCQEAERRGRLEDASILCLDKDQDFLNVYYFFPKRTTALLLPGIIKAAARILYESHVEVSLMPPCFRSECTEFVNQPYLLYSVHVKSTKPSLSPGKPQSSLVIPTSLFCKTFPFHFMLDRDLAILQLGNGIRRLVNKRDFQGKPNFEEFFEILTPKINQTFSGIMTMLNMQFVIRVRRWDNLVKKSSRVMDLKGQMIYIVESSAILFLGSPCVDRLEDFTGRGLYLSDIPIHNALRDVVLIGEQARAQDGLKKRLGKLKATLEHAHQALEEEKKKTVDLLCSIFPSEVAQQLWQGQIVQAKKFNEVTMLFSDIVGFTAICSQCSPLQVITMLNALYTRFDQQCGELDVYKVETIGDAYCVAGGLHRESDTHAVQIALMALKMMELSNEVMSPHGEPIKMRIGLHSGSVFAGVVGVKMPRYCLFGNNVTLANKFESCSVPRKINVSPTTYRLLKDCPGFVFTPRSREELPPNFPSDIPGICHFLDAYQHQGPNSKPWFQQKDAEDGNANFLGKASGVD
# T1 sequence (P20595 1-619): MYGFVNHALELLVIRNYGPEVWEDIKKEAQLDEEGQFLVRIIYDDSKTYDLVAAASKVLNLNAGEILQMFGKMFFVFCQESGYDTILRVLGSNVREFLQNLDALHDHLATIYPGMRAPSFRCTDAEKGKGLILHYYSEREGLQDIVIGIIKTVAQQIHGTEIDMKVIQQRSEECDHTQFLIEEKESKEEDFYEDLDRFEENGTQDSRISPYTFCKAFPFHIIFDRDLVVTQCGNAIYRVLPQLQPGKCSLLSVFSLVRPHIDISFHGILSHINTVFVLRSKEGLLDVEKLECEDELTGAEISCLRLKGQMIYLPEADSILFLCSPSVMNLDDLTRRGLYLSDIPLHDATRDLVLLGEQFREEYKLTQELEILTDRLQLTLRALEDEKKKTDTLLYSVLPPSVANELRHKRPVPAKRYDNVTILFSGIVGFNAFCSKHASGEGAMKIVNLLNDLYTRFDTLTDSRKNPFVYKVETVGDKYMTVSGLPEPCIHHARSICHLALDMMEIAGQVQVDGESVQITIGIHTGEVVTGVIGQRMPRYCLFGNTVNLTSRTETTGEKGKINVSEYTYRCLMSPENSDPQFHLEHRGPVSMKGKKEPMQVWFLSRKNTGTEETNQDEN
# Experiment: Effect on a recombinant guanylate cyclase reporter cell line
# Format: cell-based
# Settings: MEC = minimum effective concentration; in some cases mean values for individual determinations
# Method: B-2. Effect on a Recombinant Guanylate Cyclase Reporter Cell Line
# The cellular action of the compounds of the invention is determined using a recombinant guanylate cyclase reporter cell line, as described in F. Wunder et al., Anal. Biochem. 339, 104-112 (2005).
# Representative MEC values (MEC=minimum effective concentration) for the compounds of the invention are shown in the table below (in some cases as mean values for individual determinations): […]
row,Compound,MEC
1,"Cc1cn2c(C(=O)NC3(c4ccc(F)c(F)c4)CC3)c(C)nc2c(OCc2c(F)cccc2F)n1 [Example 4, 8-[(2,6-Difluorobenzyl)oxy]-N-[1-(3,4-difluorophenyl)cyclopropyl]-2,6-dimethylimidazo[1,2-a]pyrazine-3-carboxamide]",1 µM
2,"COC(=O)[C@H]1CC[C@H](CNC(=O)c2c(C)nc3c(OCc4c(F)cccc4F)nc(C)cn23)CC1 [Example 8, Methyl trans-4-{[({8-[(2,6-difluorobenzyl)oxy]-2,6-dimethylimidazoyl}carbonyl)amino]methyl}cyclohexanecarboxylate]",1 µM
3,"Cc1cn2c(C(=O)N[C@H]3CCNC3=O)c(C)nc2c(OCc2c(F)cccc2F)n1 [Example 9, 8-[(2,6-Difluorobenzyl)oxy]-2,6-dimethyl-N-[(3S)-2-oxopyrrolidin-3-yl]imidazo[1,2-a]pyrazine-3-carboxamide]",3 µM
4,"Cc1cn2c(C(=O)Nc3ccnc4ccc(F)cc34)c(C)nc2c(OCc2c(F)cccc2F)n1 [Example 10, 8-[(2,6-Difluorobenzyl)oxy]-N-(6-fluoroquinolin-4-yl)-2,6-dimethylimidazo[1,2-a]pyrazine-3-carboxamide]",0.3 µM
5,"Cc1cn2c(C(=O)NC[C@H]3CC[C@H](C(=O)O)CC3)c(C)nc2c(OCc2c(F)cccc2F)n1.Cl [Example 11, trans-4-{[({8-[(2,6-Difluorobenzyl)oxy]-2,6-dimethylimidazo[1,2-a]pyrazin-3-yl}carbonyl)amino]methyl}cyclohexanecarboxylic acid hydrochloride]",3 µM
6,"Cc1cn2c(C(=O)NCCC3(O)CCCC3)c(C)nc2c(OCc2c(F)cccc2F)n1 [Example 12, 8-[(2,6-Difluorobenzyl)oxy]-N-[2-(1-hydroxycyclopentyl)ethyl]-2,6-dimethylimidazo[1,2-a]pyrazine-3-carboxamide]",1 µM
7,"Cc1cn2c(C(=O)NC3c4ccccc4CC3O)c(C)nc2c(OCc2c(F)cccc2F)n1 (centres unmarked) [Example 13, 8-[(2,6-difluorobenzyl)oxy]-N-(2-hydroxy-2,3-dihydro-1H-inden-1-yl)-2,6-dimethylimidazo[1,2-a]pyrazine-3-carboxamide]",3 µM
8,"CCC(N)(CC)CNC(=O)c1c(C)nc2c(OCc3c(F)cccc3F)nc(C)cn12 [Example 15, N-(2-amino-2-ethylbutyl)-8-[(2,6-difluorobenzyl)oxy]-2,6-dimethylimidazo[1,2-a]pyrazine-3-carboxamide]",1 µM
9,"Cc1cn2c(C(=O)NC3CC(C)(C)NC(C)(C)C3)c(C)nc2c(OCc2c(F)cccc2F)n1 [Example 16, 8-[(2,6-difluorobenzyl)oxy]-2,6-dimethyl-N-(2,2,6,6-tetramethylpiperidin-4-yl)imidazo[1,2-a]pyrazine-3-carboxamide]",3 µM
10,"Cc1cn2c(C(=O)Nc3c(C)nn(CCO)c3C)c(C)nc2c(OCc2c(F)cccc2F)n1 [Example 18, 8-[(2,6-difluorobenzyl)oxy]-N-[1-(2-hydroxyethyl)-3,5-dimethyl-1H-pyrazol-4-yl]-2,6-dimethylimidazo[1,2-a]pyrazine-3-carboxamide]",3 µM
11,"Cc1cn2c(C(=O)NCCN(C)C)c(C)nc2c(OCc2c(F)cccc2F)n1 [Example 19, 8-[(2,6-difluorobenzyl)oxy]-N-[2-(dimethylamino)ethyl]-2,6-dimethylimidazo[1,2-a]pyrazine-3-carboxamide]",3 µM
12,"Cc1cn2c(C(=O)NCc3ccccc3-c3cccnc3)c(C)nc2c(OCc2c(F)cccc2F)n1 [Example 21, 8-[(2,6-difluorobenzyl)oxy]-2,6-dimethyl-N-[2-(pyridin-3-yl)benzyl]imidazo[1,2-a]pyrazine-3-carboxamide]",3 µM
13,"Cc1cn2c(C(=O)NCCN3CCOCC3)c(C)nc2c(OCc2c(F)cccc2F)n1 [Example 22, 8-[(2,6-difluorobenzyl)oxy]-2,6-dimethyl-N-[2-(morpholin-4-yl)ethyl]imidazo[1,2-a]pyrazine-3-carboxamide]",3 µM
14,"Cc1cn2c(C(=O)Nc3c(C)nn(Cc4ccc(F)cc4)c3C)c(C)nc2c(OCc2c(F)cccc2F)n1 [Example 23, 8-[(2,6-difluorobenzyl)oxy]-N-[1-(4-fluorobenzyl)-3,5-dimethyl-1H-pyrazol-4-yl]-2,6-dimethylimidazo[1,2-a]pyrazine-3-carboxamide]",1 µM
15,"Cc1cn2c(C(=O)Nc3cnn(CC(F)(F)F)c3)c(C)nc2c(OCc2c(F)cccc2F)n1 [Example 24, 8-[(2,6-difluorobenzyl)oxy]-2,6-dimethyl-N-[1-(2,2,2-trifluoroethyl)-1H-pyrazol-4-yl]imidazo[1,2-a]pyrazine-3-carboxamide]",3 µM
16,"Cc1cn2c(C(=O)NCc3ncc[nH]3)c(C)nc2c(OCc2c(F)cccc2F)n1 [Example 25, 8-[(2,6-difluorobenzyl)oxy]-N-(1H-imidazol-2-ylmethyl)-2,6-dimethylimidazo[1,2-a]pyrazine-3-carboxamide]",3 µM
17,"Cc1cn2c(C(=O)Nc3c(C(F)(F)F)n[nH]c3C)c(C)nc2c(OCc2c(F)cccc2F)n1 [Example 27, 8-[(2,6-difluorobenzyl)oxy]-2,6-dimethyl-N-[5-methyl-3-(trifluoromethyl)-1H-pyrazol-4-yl]imidazo[1,2-a]pyrazine-3-carboxamide]",1 µM
18,"Cc1cn2c(C(=O)NCc3ccc(Cl)nc3)c(C)nc2c(OCc2c(F)cccc2F)n1 [Example 28, N-[(6-chloropyridin-3-yl)methyl]-8-[(2,6-difluorobenzyl)oxy]-2,6-dimethylimidazo[1,2-a]pyrazine-3-carboxamide]",1 µM
19,"Cc1cn2c(C(=O)Nc3cnn4ccccc34)c(C)nc2c(OCc2c(F)cccc2F)n1 [Example 30, 8-[(2,6-difluorobenzyl)oxy]-2,6-dimethyl-N-(pyrazolo[1,5-a]pyridin-3-yl)imidazo[1,2-a]pyrazine-3-carboxamide]",3 µM
20,"Cc1cn2c(C(=O)NCC3(O)CC3)c(C)nc2c(OCc2c(F)cccc2F)n1 [Example 32, 8-[(2,6-difluorobenzyl)oxy]-N-[(1-hydroxycyclopropyl)methyl]-2,6-dimethylimidazo[1,2-a]pyrazine-3-carboxamide]",1 µM
21,"Cc1cn2c(C(=O)NCCN(CC(F)F)C3CC3)c(C)nc2c(OCc2c(F)cccc2F)n1 [Example 33, N-{2-[cyclopropyl(2,2-difluoroethyl)amino]ethyl}-8-[(2,6-difluorobenzyl)oxy]-2,6-dimethylimidazo[1,2-a]pyrazine-3-carboxamide]",3 µM
22,"Cc1cn2c(C(=O)N[C@H]3CCOC3=O)c(C)nc2c(OCc2c(F)cccc2F)n1 [Example 34, 8-[(2,6-difluorobenzyl)oxy]-2,6-dimethyl-N-[(3S)-2-oxotetrahydrofuran-3-yl]imidazo[1,2-a]pyrazine-3-carboxamide]",3 µM
23,"CCC(CO)(CO)NC(=O)c1c(C)nc2c(OCc3c(F)cccc3F)nc(C)cn12 [Example 35, 8-[(2,6-difluorobenzyl)oxy]-N-[1-hydroxy-2-(hydroxymethyl)butan-2-yl]-2,6-dimethylimidazo[1,2-a]pyrazine-3-carboxamide]",3 µM
24,"Cc1cn2c(C(=O)NC3CC4CCCC(C3)N4C)c(C)nc2c(OCc2c(F)cccc2F)n1 (centres unmarked) [Example 36, 8-[(2,6-difluorobenzyl)oxy]-2,6-dimethyl-N-(9-methyl-9-azabicyclo[3.3.1]non-3-yl)imidazo[1,2-a]pyrazine-3-carboxamide]",1 µM
25,"Cc1cn2c(C(=O)NOCCO)c(C)nc2c(OCc2c(F)cccc2F)n1 [Example 44, 8-[(2,6-Difluorobenzyl)oxy]-N-(2-hydroxyethoxy)-2,6-dimethylimidazo[1,2-a]pyrazine-3-carboxamide]",10 µM
26,"Cc1cn2c(C(=O)NN3CCOCC3)c(C)nc2c(OCc2c(F)cccc2F)n1 [Example 45, 8-[(2,6-difluorobenzyl)oxy]-2,6-dimethyl-N-(morpholin-4-yl)imidazo[1,2-a]pyrazine-3-carboxamide]",10 µM
